One block for each molecule: values may come before it.
Key:
Assay type in all cases: physicochemical
[1] = Critical micelle formation concentration (CMC) by surface tension
Description: MEASUREMENT OF THE CRITICAL MICELLE FORMATION CONCENTRATION (CMC): CMC measurements are conducted by a measurement of a surface tension measure as a function of surfactant concentration according to “Surfactant: A Practical Handbook,” K. Robert Lange ed., Hanser Publishers, Munich (1999), pp. 16-17. A 5000-ppm stock solution of the samples is prepared for the analysis on a Kruss K100 Tensiometer (Kruss USA, Charlotte, N.C.). The hardness level and pH are adjusted using corresponding stock solutions of artificial hardness and an NaOH solution. The concentration series is generated automatically with a computer-controlled Dosimat, so that only a surfactant stock solution needs to be prepared. Measurements of surface tension at the air-water interface are carried out at twelve surfactant concentrations. The samples are analyzed at pH 8 and pH 10 for hardness values of 4 gpg and 8 gpg, all measurements being taken at 25.0° C. (±0.5° C.). The CMC data are analyzed by plotting increase in surface tension with respect to dilution by using the “CMC Add-In” of the Lab Desk software from Kruss. The CMC is defined as the surfactant concentration at the breakpoint in the titration curve.

[2] = Suds testing protocol (FOAMSCAN foam / suds / lather volume); details: for Foam Volume: lauric acid 2000 ppm
Description: SUDS TESTING PROTOCOL: Foam volume and foam mileage are measured by […] instrument manufactured by […].-Concept, Longessaigne, France. The experiment is run at 25.0° C. (±0.5° C.). […] The cleaning solution contains 25 ppm Technical Body Soil (“TBS”; consisting of 15 wt. % coconut oil, 15 wt. % oleic acid, 15 wt. % paraffin oil, 15 wt. % olive oil, 15 wt. % cottonseed oil, 5 wt. % squalene, 5 wt. % cholesterol, 5 wt % myristic acid, 5 wt. % palmitic acid, and 5 wt. % stearic acid). The cleaning solution is mixed and aged at 60° C. for an hour and is placed into the […] sample chamber, a 1000-mL cylindrical transparent plastic cell. […] The suds volume recorded at the end of stifling is defined as the suds volume generated. The suds mileage is monitored by the time course of the suds height over 10 minutes. The final suds volume at the end of the 10 minutes is reported. […] Hardness is indicated by a calculation where both calcium and magnesium values are reported as mg/L (ppm), in which 2.5[Ca]+4.12[Mg] equals hardness in mg/L. The unit “grains per gallon” (gpg) is defined as 1 grain (64.8 mg) of calcium carbonate per U.S. gallon (3.79 L), or 17.118 ppm. Thus, 1 gpg is equivalent to 17.118 ppm of the Calcium and Magnesium solution at a 3:1 molar ratio of calcium to magnesium.

[3] = Marangoni effect (E′/E″), oscillating drop interfacial rheology; details: pH 10.0 (wash), lauric acid system
Description: […] EFFECT (EYE'') MEASUREMENT: The Marangoni Effect quantifies the origin of foam film stability. Dynamic interfacial rheology is measured by a DSA100 (Kruss USA, Charlotte, N.C.) instrument equipped with an Oscillating Drop Module (ODM). The measurement is based on monitoring oscillating pendent drop shape with a CCD camera. The dynamic changes in the surface area and the interfacial tension (air-liquid interface) of the pendent drop from oscilating at equal periods, were recorded. A delay of dynamic interfacial tension change to dynamic surface area change is expressed as a phase angle Φ […]. From the measured phase angle, the Elastic Modulus (E') and Viscous Modulus (E'') are calculated. The Marangoni Effect EYE'' is computed from the relationship, E'/E''=cot Φ. At various surfactant levels, measurements are conducted at pH 10 and 4 gpg hardness in a base matrix of 300 ppm LAS (detergent measurements only) or 2000 ppm fatty acid (bar soap measurements only); 2300 ppm Na2SO4, and 25 ppm TBS (described above). The pH-switchable cosurfactants are added on the top of the base matrix to assess their impact on foam-film stability. The ODM operation is conducted with a period time of 2 seconds and an oscillation amplitude of 0.1 or 0.5.

[4] = Micellar lifetime (τ2) by stopped flow conductimetry; details: pH 10.0 (wash), lauric acid system
Description: MEASUREMENT OF […] […] (τ2): The micellar stability of a surfactant system is measured by Stopped Flow Conductimetry. The experiment is run at 25.0° C. (±0.5° C.). […] The conductivity of the solution is monitored by a MCS-200 Impedance Spectrometer from Bio-Logic SAS. The τ2 value is defined as the time required to reach a new equilibrium, as determined by curve-fit software BKMCS (version #1) from the Bio-Logic SAS company.

- CMC ([1]; pH 8): 82 ppm
- CMC ([1]; pH 10): 75 ppm
SMILES: CCCCCCCCCCCCNCCC[N+](C)(C)C.[Br-] [QUAT, 3-(dodecylamino)-N,N,N-trimethylpropan-1-aminium bromide]

- Change of Lather Volume (rinse vs wash) ([2]; 4 gpg): −72%
- Change of Lather Volume (rinse vs wash) ([2]; 8 gpg): −100%
- Change of Lather Volume (rinse vs wash) ([2]; DI Water): −23%
- Lather Volume ([2]; pH 8.0 (rinse), 4 gpg): 60 mL
- Lather Volume ([2]; pH 8.0 (rinse), 8 gpg): 0 mL
- Lather Volume ([2]; pH 8.0 (rinse), 12 gpg): 0 mL
- Lather Volume ([2]; pH 8.0 (rinse), 16 gpg): 0 mL
- Lather Volume ([2]; pH 8.0 (rinse), DI Water): 170 mL
- Lather Volume ([2]; pH 10.0 (wash), 4 gpg): 215 mL
- Lather Volume ([2]; pH 10.0 (wash), 8 gpg): 175 mL
- Lather Volume ([2]; pH 10.0 (wash), 12 gpg): 0 mL
- Lather Volume ([2]; pH 10.0 (wash), 16 gpg): 0 mL
- Lather Volume ([2]; pH 10.0 (wash), DI Water): 220 mL
SMILES: CCCCCCCCCCCC(=O)[O-].[Na+] [Sodium Laurate]

- CMC ([1]; pH 8): 48 ppm
- CMC ([1]; pH 10): 43 ppm
SMILES: CCCCCCCCCCCC[N+](C)(C)CCO.[Br-] [KDB, dodecyl-(2-hydroxyethyl)-dimethyl ammonium bromide]

- E′/E″ [3]: 1.5
- Foam Volume ([2]; pH 8.0 (rinse)): 222 mL
- Foam Volume ([2]; pH 10.0 (wash)): 80 mL
- τ2 [4]: 39 ms
SMILES: CCCCCCCCCCCC(=O)O [Lauric Acid]
